TGI data for 8 molecules are collected here from PubChem BioAssay (NCI).

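These data come from cells grown in 96-well plates and exposed to compound for 48 hours at five concentrations. TGI: concentration producing complete growth inhibition.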

Test systems include HOP-18 NSCLC; LXFL 529 NSCLC; M19-MEL melanoma; SNB-78 CNS; DMS 114 small cell lung; DMS 273 small cell lung; P388 leukemia; P388/ADR leukemia; XF 498 CNS; SN12K1 renal; RXF-631 renal.
Holding throughout (assay): NCI tumour cell line growth inhibition, 48 h

Regarding `NC(=O)CCC(NCc1c2ccccc2[n+]([O-])c2ccccc12)C(=O)O` (configuration not stated), the TGI with HOP-18 NSCLC, in the experiment on LXFL 529 NSCLC, in the experiment with M19-MEL melanoma, in the experiment with SNB-78 CNS, in the experiment on DMS 114 small cell lung and with DMS 273 small cell lung was more than 100 µM each time.
Regarding `Cc1c(-c2cc3n(n2)C(c2cccs2)C(C#N)=C(c2ccccc2)N3)c(=O)n(-c2ccccc2)n1C` (configuration not stated), the TGI with HOP-18 NSCLC, in the experiment with P388 leukemia, in the experiment with P388/ADR leukemia, in the experiment on XF 498 CNS, in the experiment with SN12K1 renal and in the experiment with M19-MEL melanoma was more than 100 µM throughout. In addition, the TGI in the experiment with SNB-78 CNS, in the experiment with DMS 114 small cell lung and with DMS 273 small cell lung was more than 100 µM throughout.
As for `CC(=O)c1ccc(Oc2ccc(/C(C)=N\N=C(N)N)cc2)cc1`, the results for the TGI in the experiment on LXFL 529 NSCLC, in the experiment on SNB-78 CNS and in the experiment with DMS 114 small cell lung were 17.4 µM, 16.6 µM and 4.98 µM, respectively.
Regarding `C=C1c2c(cc3c(c2O)c(=O)c2ccccc2n3C)OC1(C)C`, the TGI in the experiment with HOP-18 NSCLC was more than 100 µM; in the experiment with XF 498 CNS, 57.2 µM; in the experiment on LXFL 529 NSCLC, more than 100 µM; in the experiment on RXF-631 renal, more than 100 µM; in the experiment on M19-MEL melanoma, more than 100 µM; in the experiment with SNB-78 CNS, more than 100 µM. Moreover, the TGI in the experiment on DMS 114 small cell lung and with DMS 273 small cell lung was more than 100 µM each time.
`O=P(O)(O)C(CSc1ccccc1)P(=O)(O)O`: the TGI in the experiment on HOP-18 NSCLC, in the experiment on P388 leukemia, in the experiment with P388/ADR leukemia, in the experiment with XF 498 CNS, in the experiment with SN12K1 renal and in the experiment with M19-MEL melanoma was more than 100 µM each time. Besides, the TGI with SNB-78 CNS, with DMS 114 small cell lung and in the experiment on DMS 273 small cell lung was more than 100 µM in each case.
For the molecule `O=C(NO)c1coc2ccccc2c1=O`, the TGI with LXFL 529 NSCLC, in the experiment on RXF-631 renal, with SNB-78 CNS, in the experiment on DMS 114 small cell lung and in the experiment on DMS 273 small cell lung was more than 100 µM throughout.
Regarding `Cc1ccc(C(=O)C(C)N)cc1` (configuration not stated), the TGI in the experiment with HOP-18 NSCLC, in the experiment with XF 498 CNS, in the experiment with LXFL 529 NSCLC, with SNB-78 CNS, in the experiment with DMS 114 small cell lung and in the experiment on DMS 273 small cell lung was more than 100 µM in each case.
`CC(C)(C)[Si](C)(C)OCCCC#CCO`: the TGI in the experiment with XF 498 CNS, in the experiment on LXFL 529 NSCLC, in the experiment on RXF-631 renal, in the experiment with SNB-78 CNS, with DMS 114 small cell lung and in the experiment with DMS 273 small cell lung was more than 100 µM in each case.
